Reference: a melting point compilation (Tetko et al.; mined from patent text by program, amines drawn as free bases though some values may be those of a salt)

SMILES	melting point [°C]
CSc1cnc(OCCOc2ncnc(NS(=O)(=O)c3ccc(C(C)(C)C)cc3)c2-c2ccc(C(=O)O)cc2)nc1	226 to 227
O=C1OC(=Nc2ccc(F)cc2F)C2=C1CCCC2	81 to 84
CCCn1c(=O)c2[nH]c(C3CCCC3)nc2n(CCc2ccc(NC(C)=O)cc2)c1=O	> 270
CC(C)(C)NC(=O)c1nn(-c2c(F)cc(F)cc2F)c2c1C1CCC2C1 (stereo not drawn)	142 to 146
CCCCCCCCCCCCc1cc(C=O)on1	53 to 54
C=CCc1cccnc1C(=O)OC	116 to 119
CCNC(=S)NC1CCCc2ccccc21 (stereo not drawn)	120 to 122
OCC1OC(n2cnc3c(NNC4CCOc5ccccc54)ncnc32)C(O)C1O (stereo not drawn)	125 to 130
COc1cc(C=C2NC(=O)NC2=O)cc(OC)c1O	296 to 297
Fc1ccc2[nH]cc(C3=CCN(CC4COc5ccc6c(c5O4)CCCO6)CC3)c2c1 (stereo not drawn)	205 to 206
CCCCCCCCCCCCCCNC(=S)NC(=O)c1ccc(C#N)cc1	78 to 80
CCCCCCCCOC1CCC(=O)N1 (stereo not drawn)	36 to 38
CON(C)C(=O)C(C)NC(=O)OC(C)(C)C (stereo not drawn)	150 to 151
CC1(C)C(C=CC(=O)O)C1C(=O)OC(C#N)c1ccc(F)c(Oc2ccccc2)c1 (stereo not drawn)	99
CC(C)c1nc(CC(=O)O)c(-c2ccco2)o1	108 to 109
Cc1ccccc1N1CCN(CCn2c(=O)[nH]c3cscc3c2=O)CC1	214 to 216

SMILES	melting point [°C]
CCO[C@@H](C)c1nnc([C@H](C)OCC)n1N[C@H](CC)C(OC)OC	88
CCOC(=O)c1sc(C(=O)OCC)c2c1OCC(CC)(CC)CO2	100
CCON=C(C)c1cccnc1	160 to 162
C=CCc1c(NC(=O)C(F)(F)F)ccc2c(=O)cc(C(=O)OCC)oc12	136 to 137
COC(=O)C12CC(C(=O)OC)(C1)C2	92
N[C@H]1CC[C@H](CNc2ncc3ncnc(Nc4ccc(F)c(Cl)c4)c3n2)CC1	166 to 169
COC(=O)c1[nH]c2c(C)ccc(C)c2c1C=O	174 to 175
O=c1[nH]c2cc(Cl)c(Cl)cc2cc1P(=O)(O)O	> 300
CCOC(=O)c1csc(C2OC(CO)C(O)C2O)n1 (stereo not drawn)	62 to 64
O=c1[nH]nc2n1-c1ccc(Cl)nc1C(c1ccccc1Cl)=NC2O (stereo not drawn)	260 to 262
CCCCN(CC)c1nc(C)[nH]c2c(-c3ccc(Cl)cc3Cl)nc(C)c1-2	94 to 95
Cc1nnc2n1-c1ccc(C#C[Si](C)(C)C)cc1C(c1ccccc1F)=NC2	218 to 219
COC(=O)c1nc2cc(Cl)c(OC)c(Cl)c2c(O)c1C(=O)OC	210 to 211
Cc1ccc(S(=O)(=O)OCCCCCCn2c3c(c4ccccc4c2=O)C(=O)c2ccccc2-3)cc1	146 to 149
COc1ccc(-c2c3c(c(O)c4cc(OC)c(OC)c(OC)c24)C(=O)CCC3)cc1OC	164 to 166

Continued, values first:

melting point [°C]	SMILES
248 to 250	COc1ccc2c(c1)c(CC(=O)O)c(C)n2-c1ccnc2cc(Cl)ccc12
141	O=[N+]([O-])c1sc(Nc2c(Cl)cccc2Cl)nc1Cl
111 to 113	CSc1ccc(C(=N)Nc2ccc(C)c(C)c2)cc1
55 to 57	C=CCc1cc(Cl)c2ccccc2c1O
88 to 90	CC(C)(C)COC(=O)COc1ccc(C(=O)CN2CCN(c3ccncc3)CC2)cc1
116 to 118	COCCn1nc(-c2ccc(Cl)cc2)c2ccccc2c1=O
184 to 186	Cc1nc(N2CCN(Cc3ccc(OC(F)(F)F)cc3)C2=O)sc1C(=O)NCC1CC1
188 to 190	CC(=O)Nc1ncc(-c2cccc3ccccc23)o1
237 to 239	NC(=O)c1ccc2nc(C(=O)NCc3ccnc(OCC4CCOC4)c3)[nH]c(=O)c2c1 (stereo not drawn)
131 to 135	CCN(C(=O)OC)c1cccc(-c2ccc3nncn3n2)c1
142 to 146	CCc1ccc(Nc2ncc(Cc3ccc(OC)nc3)c3ncccc23)cc1Br
130	COc1ccc(CN(C)CCCOc2ccc(NC(=O)c3cccc4c(=O)c5cccc(F)c5[nH]c34)c(C)c2)cc1OC
159 to 161	O=C(c1ccc(-c2ncc[nH]2)cc1)N1CCN(S(=O)(=O)c2ccc3cc(Cl)ccc3c2)CC1
150	CC1=NC(=Cc2cccc(-c3ccc(Cl)cc3)c2)C(=O)O1
161 to 162	CC1(C)CCC(C)(C)c2cc(NC(=O)c3ccc(CO)cc3)ccc21
86 to 89	CC(C)c1csc(/C=C/c2cc([N+](=O)[O-])ccc2Cl)n1
99 to 100	COc1cc(-c2ccccc2)nc(-c2ccc(C)cc2)n1
175	Oc1ccc2c(c1)CC(NCC(O)c1cccc(Cl)c1)CC2 (stereo not drawn)
68 to 70	CCc1noc(-c2ncn(-c3cccc(Oc4ccc(Cl)cc4)c3)c2COC)n1
187 to 188	O=C(O)CCc1cn(Cc2cccc(C(=O)Nc3ccccn3)c2)nc1-c1ccccc1
90 to 92	Cc1cc(SCC#Cc2ccccc2)ccc1OCC(=O)O

melting point [°C]	SMILES
147	CN1CCc2c(c(Br)cc3nc(OCc4ccccc4)c(OCc4ccccc4)nc23)C1
283	COc1ccc(C(=O)Nc2ccc3ccc(C#N)nc3n2)cc1
160 to 162	O=Cc1ccc2c3ccccc3c3ccccc3c2c1
144 to 147	Nc1nc(-c2cc(Cl)ccc2Cl)nc(N2CCC[C@H]2C(=O)O)n1
> 300	O=C1NC(=O)c2nc3ccccc3cc21
160 to 162	COC(=S)NCc1cn(-c2ccc(-n3ccc(C=O)c3)cc2)nn1
245 to 247	COC(=O)c1c(-c2ccncc2)[nH]c(-c2ccncc2)c1C
73 to 85	N#CCc1ccc([N+](=O)[O-])c(OCc2ccccc2)c1
197 to 198	O=c1c2ccccc2sc2c(Cl)cc(Cl)c(Oc3ccccc3)c12
191 to 193	Nc1ccc2c(c1)C(=O)CC1(CCN(CCc3ccc4nonc4c3)CC1)O2
133 to 137	CN=C(C)c1cc(Oc2ccc(C(F)(F)F)cc2Cl)ccc1[N+](=O)[O-]
263 to 267	COc1ccc2c(c1)c(-c1cc3nccnc3[nH]1)cn2CC(=O)N1CCOCC1
104 to 106	CSC(=N)N(c1ccccc1)c1ccccc1
128 to 130	C#CC1N(C(=O)Oc2ccccc2)c2ccc(OCc3ccccc3[N+](=O)[O-])cc2C23OC12CCCC3=O (stereo not drawn)
199 to 201	CCC(O)(CC)c1cccc2[nH]c(=O)n(C)c12
129 to 133	CCOC(=O)c1cn(C2CCCCC2)c2cc(Br)ccc2c1=O
269 to 270	CN1C(=O)CC[C@]2(C)c3ccc(NC(=O)c4ccc([N+](=O)[O-])cc4)cc3CC[C@@H]12
72 to 73	O=Cc1cc([N+](=O)[O-])ccc1OCCCc1ccccc1
81 to 82	COc1cccc(Cc2ccc(N)c(C#N)c2)c1
291	O=P(O)(O)COc1ccc2c(c1)[nH]c1ccccc12
104 to 106	CC(CCC(=O)O)c1ccc(OCc2ccccc2C(=O)O)cc1 (stereo not drawn)
